Values of other authors, collected in patent US20140283166A1, “CREATION AND TRANSMISSION OF MEGALOCI” (Monsanto Technology, LLC, priority 2013, published 2014).
Like-named read-outs stand apart in the source and are kept apart here.

Test system: Arabidopsis

COc1cccc(C(N)=O)c1 [3-methoxybenzamide]
effect on genetic distance around centromeres (2 mM): increase the genetic distance around centromeres

CCCC(=O)O [n-butyric acid]
effect on genetic distance around centromeres (20 μM): increase the genetic distance around centromeres

COS(C)(=O)=O [methanesulfonic acid methyl ester]
effect on genetic distance around centromeres (75 parts per million): increase the genetic distance around centromeres

Nc1ncn([C@H]2C[C@H](O)[C@@H](CO)O2)c(=O)n1 [5-aza-2′-deoxycytidine]
effect on genetic distance around centromeres (25 or 100 mg/L): increase the genetic distance around centromeres

N.N.[Cl][Pt][Cl] [cis-diamminedichloroplatinum]
effect on genetic distance around centromeres (20 μg/ml): increase the genetic distance around centromeres

CCOS(C)(=O)=O [methanesulfonic acid ethyl ester]
effect on genetic distance around centromeres (0.05%): increase the genetic distance around centromeres

CC(/C=C/C(=O)NO)=C\[C@@H](C)C(=O)c1ccc(N(C)C)cc1 [trichostatin A]
effect on genetic distance around centromeres (10 μM): increase the genetic distance around centromeres

Cc1c(N)nc([C@H](CC(N)=O)NC[C@H](N)C(N)=O)nc1C(=O)N[C@H](C(=O)N[C@H](C)[C@@H](O)[C@H](C)C(=O)N[C@H](C(=O)NCCC1=N[C@@H](c2nc(C(=O)NCCCCN=C(N)N)cs2)CS1)[C@@H](C)O)[C@@H](O[C@@H]1O[C@@H](CO)[C@@H](O)[C@H](O)[C@@H]1O[C@H]1O[C@H](CO)[C@@H](O)[C@H](OC(N)=O)[C@@H]1O)c1cnc[nH]1 [Zeocin]
effect on genetic distance around centromeres (1 μg/ml): increase the genetic distance around centromeres

CCN(N=O)C(N)=O [N-nitroso-N-ethylurea]
effect on genetic distance around centromeres (100 μM): increase the genetic distance around centromeres

CO[C@@]12[C@H](COC(N)=O)C3=C(C(=O)C(C)=C(N)C3=O)N1C[C@@H]1N[C@@H]12 [mitomycin C]
effect on genetic distance around centromeres (10 mg/L): increase the genetic distance around centromeres
